Drawing on US12692249B2, “WDR5 inhibitors and modulators” (Vanderbilt University, priority 2019, dated 2026), this text covers Ki and GI50 for 21 molecules.

pKi: −log10 of the molar value. Where two headings read alike, the source gives them in different places.

For one test, the target named is WDR5 (Homo sapiens, UniProt P61964). Put plainly: TR-FRET competition binding assay, displacement of 10mer-Thr-FAM MLL peptide probe from His-tagged WDR5. As to conditions: WDR5-His tag (residues 24-334) 2 nM; 10mer-Thr-FAM 150 nM; 60 min, room temperature; read-out: Ki for Inhibition of WDR5 by TR-FRET assay. On the technique in general: TR-FRET usually uses a lanthanide donor and a delayed reading to cut background.

Test [1] deals with MV4:11 human cancer cell lines. Put plainly: Cellular viability / anti-proliferative assay, CellTiter-Glo, 5 day protocol. To be noted: Homo sapiens, MV4-11, 120 h, read-out: GI50 on cellular proliferation of MV4:11 human cancer cell lines. Format: cell-based. Summed up:
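MV-4-11 cells in IMDM with 10% FBS, 200 cells/well, exposed 5 days to 22 two-fold dilutions from 30 μM, final DMSO 0.3%. Viability read by CellTiter-Glo luminescence; GI50 from sigmoidal dose-response fit, mean of at least two replicates.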
On the technique in general: ATP-based viability assays read luminescence as a measure of living cells.

The mark [2] stands for this setting: MV4:11 cells, 5 day incubation, CellTiter-Glo, mean of at least two replicates.

`CCc1cc2c(N3CCc4c(cc(Cn5ccnc5)cc4-c4cn(C)nc4C(F)(F)F)C3=O)cccc2nc1C` [Example 117, 7-((1H-Imidazol-1-yl)methyl)-2-(3-ethyl-2-methylquinolin-5-yl)-5-(1-methyl-3-(trifluoromethyl)-1H-pyrazol-4-yl)-3,4-dihydroisoquinolin-1(2H)-one]: the pKi – broadly, the Ki on a negative log10 scale, so that one unit is a factor of ten – at WDR5 was 10.44. In test [1], the GI50 came out at 64 nM.
On to `COc1ccc2nc(C)cc(N3CCc4c(cc(Cn5ccnc5[N+](=O)[O-])cc4-c4cn(C)nc4C(F)(F)F)C3=O)c2c1` [Example 118, 2-(6-Methoxy-2-methylquinolin-4-yl)-5-(1-methyl-3-(trifluoromethyl)-1H-pyrazol-4-yl)-7-((2-nitro-1H-imidazol-1-yl)methyl)-3,4-dihydroisoquinolin-1(2)-one], for which the pKi on WDR5 is below 4.48. Also, the GI50 in test [1] (setting [2]) is 3970 nM.
The like results for `CCc1nc2cccc(N3CCc4c(cc(Cn5ccnc5)cc4-c4cn(C)nc4C(F)(F)F)C3=O)c2cc1C` [Example 119, 7-((1H-Imidazol-1-yl)methyl)-2-(2-ethyl-3-methylquinolin-5-yl)-5-(1-methyl-3-(trifluoromethyl)-1H-pyrazol-4-yl)-3,4-dihydroisoquinolin-1(2H)-one] were, in that order, 10.24 and 457 nM.
With `CCc1cc(OC)c2nc(C)cc(N3CCc4c(cc(Cn5ccnc5)cc4-c4cn(C)nc4C(F)(F)F)C3=O)c2c1` [Example 120, 7-((1H-Imidazol-1-yl)methyl)-2-(6-ethyl-8-methoxy-2-methylquinolin-4-yl)-5-(1-methyl-3-(trifluoromethyl)-1H-pyrazol-4-yl)-3,4-dihydroisoquinolin-1(2H)-one], the pKi at WDR5 is 10.64. Moreover, in test [1] (setting [2]), the GI50 is below 20 nM.
For the molecule `COc1ccc2nc(C)cc(N3CCc4c(cc(Cn5ccnc5N)cc4-c4cn(C)nc4C(F)(F)F)C3=O)c2c1` [Example 121, 7-((2-Amino-1H-imidazol-1-yl)methyl)-2-(6-methoxy-2-methylquinolin-4-yl)-5-(1-methyl-3-(trifluoromethyl)-1-1H-pyrazol-4-yl)-3,4-dihydroisoquinolin-1(2H)-one], the pKi at WDR5 was 10.64. Also, the GI50 in test [1] (setting [2]) is below 20 nM.
As to `COc1cc(OC)c2cncc(N3CCc4c(cc(Cn5ccnc5)cc4-c4cn(C)nc4C(F)(F)F)C3=O)c2c1` [Example 122, 7-((1H-Imidazol-1-yl)methyl)-6′,8′-dimethoxy-5-(1-methyl-3-(trifluoromethyl)-1H-pyrazol-4-yl)-3,4-dihydro-1H-[2,4′-biisoquinolin]-1-one], at WDR5, the negative logarithm of the Ki (pKi) was 10.28. For the same molecule, the GI50 in test [1] (setting [2]) was determined as 27 nM.
In the same order, the values of `COc1cc(N2CCN(C)CC2)c2cncc(N3CCc4c(cc(Cn5ccnc5)cc4-c4cn(C)nc4C(F)(F)F)C3=O)c2c1` [Example 123, 7-((1H-Imidazol-1-yl)methyl)-6′-methoxy-5-(1-methyl-3-(trifluoromethyl)-1H-pyrazol-4-yl)-8′-(4-methylpiperazin-1-yl)-3,4-dihydro-1H-[2,4′-biisoquinolin]-1-one] are 10.40 and below 20 nM.
Take `CCc1cc(N2CCN3CCOC[C@H]3C2)c2nc(C)cc(N3CCc4c(cc(Cn5ccnc5)cc4-c4cn(C)nc4C(F)(F)F)C3=O)c2c1` [Example 124, (R)-7-((1H-Imidazol-1-yl)methyl)-2-(6-ethyl-8-(hexahydropyrazino[2,1-c][1,4]oxazin-8(1H)-yl)-2-methylquinolin-4-yl)-5-(1-methyl-3-(trifluoromethyl)-1H-pyrazol-4-yl)-3,4-dihydroisoquinolin-1(2H)-one]: the negative logarithm of the Ki (pKi) on WDR5 is 10.52. For the same molecule, the GI50 in test [1] (setting [2]) is below 20 nM.
With `COc1cc(CN2CCN(C(C)=O)CC2)c2nccc(N3CCc4c(cc(Cn5ccnc5)cc4-c4cn(C)nc4C(F)(F)F)C3=O)c2c1` [Example 127, 7-((1H-Imidazol-1-yl)methyl)-2-(8-((4-acetylpiperazin-1-yl)methyl)-6-methoxyquinolin-4-yl)-5-(1-methyl-3-(trifluoromethyl)-1H-pyrazol-4-yl)-3,4-dihydroisoquinolin-1(2H)-one], on WDR5, the negative-log Ki (pKi) is 10.68. Besides, in test [1] (setting [2]), the GI50 was below 20 nM.
For the molecule `COc1cc(CN2CCCCC2)c2nccc(N3CCc4c(cc(Cn5ccnc5)cc4-c4cn(C)nc4C(F)(F)F)C3=O)c2c1` [Example 128], the pKi at WDR5 is 10.42. The GI50 in test [1] is below 20 nM.
In the case of `CCc1cnc2cc(C)cc(N3CCc4c(cc(Cn5ccnc5)cc4-c4cn(C)nc4C(F)(F)F)C3=O)c2c1` [Example 129, 7-((1H-Imidazol-1-yl)methyl)-2-(3-ethyl-7-methylquinolin-5-yl)-5-(1-methyl-3-(trifluoromethyl)-1H-pyrazol-4-yl)-3,4-dihydroisoquinolin-1(2H)-one], the pKi on WDR5 was 10.54. Also, the GI50 in test [1] was found to be 35 nM.
In the case of `Cn1cc(-c2cc(Cn3ccnc3)cc3c2CCN(c2cccc4ncc(C5CC5)cc24)C3=O)c(C(F)(F)F)n1` [Example 130, 7-((1H-Imidazol-1-yl)methyl)-2-(3-cyclopropylquinolin-5-yl)-5-(1-methyl-3-(trifluoromethyl)-1H-pyrazol-4-yl)-3,4-dihydroisoquinolin-1(2H)-one], the pKi at WDR5 was 10.29. For the same molecule, the GI50 in test [1] was found to be 218 nM.
For the molecule `COc1cc(CN2CCN(C)C(=O)C2)c2nccc(N3CCc4c(cc(Cn5ccnc5)cc4-c4cn(C)nc4C(F)(F)F)C3=O)c2c1` [Example 131, 7-((1H-Imidazol-1-yl)methyl)-2-(6-methoxy-8-((4-methyl-3-oxopiperazin-1-yl)methyl)quinolin-4-yl)-5-(1-methyl-3-(trifluoromethyl)-1H-pyrazol-4-yl)-3,4-dihydroisoquinolin-1(2H)-one], the negative logarithm of the Ki (pKi) on WDR5 is 10.37. The GI50 in test [1] (setting [2]) was below 20 nM.
`CCc1cc(N2CCN(C3COC3)CC2)c2nc(C)cc(N3CCc4c(cc(Cn5ccnc5)cc4-c4cn(C)nc4C(F)(F)F)C3=O)c2c1` [Example 132, 7-((1H-Imidazol-1-yl)methyl)-2-(6-ethyl-2-methyl-8-(4-(oxetan-3-yl)piperazin-1-yl)quinolin-4-yl)-5-(1-methyl-3-(trifluoromethyl)-1H-pyrazol-4-yl)-3,4-dihydroisoquinolin-1(2H)-one]: the negative-log Ki (pKi) on WDR5 was 10.52. Besides, the GI50 in test [1] (setting [2]) is below 20 nM.
In the same order, the values of `COc1cc(CN2CCOCC2)c2nccc(N3CCc4c(cc(Cn5ccnc5)cc4-c4cn(C)nc4C(F)(F)F)C3=O)c2c1` [Example 133, 7-((1H-Imidazol-1-yl)methyl)-2-(6-methoxy-8-(morpholinomethyl)quinolin-4-yl)-5-(1-methyl-3-(trifluoromethyl)-1H-pyrazol-4-yl)-3,4-dihydroisoquinolin-1(2H)-one] are 10.46 and below 20 nM.
For `CCc1cc(N2CCN3CCOC[C@@H]3C2)c2nc(C)cc(N3CCc4c(cc(Cn5ccnc5)cc4-c4cn(C)nc4C(F)(F)F)C3=O)c2c1` [Example 134, (S)-7-((1H-imidazol-1-yl)methyl)-2-(6-ethyl-8-(hexahydropyrazino[2,1-c][1,4]oxazin-8(1H)-yl)-2-methylquinolin-4-yl)-5-(1-methyl-3-(trifluoromethyl)-1H-pyrazol-4-yl)-3,4-dihydroisoquinolin-1(2H)-one], the pKi on WDR5 was 10.52. Further, the GI50 in test [1] (setting [2]) was below 20 nM.
`COc1cc(CN2CCN(C)CC2)c2nccc(N3CCc4c(cc(Cn5ccnc5)cc4-c4cn(C)nc4C(F)(F)F)C3=O)c2c1` [Example 135, 7-((1H-Imidazol-1-yl)methyl)-2-(6-methoxy-8-((4-methylpiperazin-1-yl)methyl)quinolin-4-yl)-5-(1-methyl-3-(trifluoromethyl)-1H-pyrazol-4-yl)-3,4-dihydroisoquinolin-1(2H)-one]: on WDR5, the pKi is 10.40. Besides, the GI50 in test [1] (setting [2]) was below 20 nM.
Consider `COCc1cc(OC)cc2c(N3CCc4c(cc(Cn5ccnc5)cc4-c4cn(C)nc4C(F)(F)F)C3=O)ccnc12` [Example 136, 7-((1H-Imidazol-1-yl)methyl)-2-(6-methoxy-8-(methoxymethyl)quinolin-4-yl)-5-(1-methyl-3-(trifluoromethyl)-1H-pyrazol-4-yl)-3,4-dihydroisoquinolin-1(2H)-one], for which the pKi on WDR5 was above 10.70. The GI50 in test [1] (setting [2]) was below 20 nM.
On to `COc1cc(CN2CCCC2)c2nccc(N3CCc4c(cc(Cn5ccnc5)cc4-c4cn(C)nc4C(F)(F)F)C3=O)c2c1` [Example 138, 7-((1H-Imidazol-1-yl)methyl)-2-(6-methoxy-8-(pyrrolidin-1-ylmethyl)quinolin-4-yl)-5-(1-methyl-3-(trifluoromethyl)-1H-pyrazol-4-yl)-3,4-dihydroisoquinolin-1(2H)-one], for which the pKi at WDR5 is above 10.70. In addition, in test [1] (setting [2]), the GI50 is below 20 nM.
As to `COc1cc(Cn2ccnc2)c2nccc(N3CCc4c(cc(Cn5ccnc5)cc4-c4cn(C)nc4C(F)(F)F)C3=O)c2c1` [Example 139, 7-((1H-imidazol-1-yl)methyl)-2-(8-((1H-imidazol-1-yl)methyl)-6-methoxyquinolin-4-yl)-5-(1-methyl-3-(trifluoromethyl)-1H-pyrazol-4-yl)-3,4-dihydroisoquinolin-1(2H)-one], the pKi at WDR5 was above 10.70. For the same molecule, in test [1] (setting [2]), the GI50 was below 20 nM.
Turning to `CCc1cc(OCCOC)c2nccc(N3CCc4c(cc(Cn5ccnc5)cc4-c4cn(C)nc4C(F)(F)F)C3=O)c2c1` [Example 140, 7-((1H-Imidazol-1-yl)methyl)-2-(6-ethyl-8-(2-methoxyethoxy)quinolin-4-yl)-5-(1-methyl-3-(trifluoromethyl)-1H-pyrazol-4-yl)-3,4-dihydroisoquinolin-1(2H)-one], on WDR5, the pKi was above 10.70. Moreover, the GI50 in test [1] (setting [2]) was below 20 nM.
